Values joined by “and” are separate entries in the source; they are usually repeats but may differ in a detail not shown here. Equal entries are not always repeated.
Experiments:
[1] = system: T/G Human Aortic Smooth Muscle Cells; assay type: cell-based; for Growth score: key: −: Lethal treatment, no cells left viable, all rounded, shriveled and dead; −/+: Some treated cells remain viable, about equal amount of clearly dead cells; +/−: Most cells remain viable, detectable number of dead cells; 1+: All cells appear viable, same density as when treated; 2+: Minimal proliferation, compared to control; 3+: Moderate proliferation compared to control; 4+: Maximal growth, unaffected by treatment
Vero cells = assay type: cell-based, monkey
[2] = system: T/G HA-VSMC cells (human aortic smooth muscle cell system); assay type: cell-based

NC(Cc1ccc(N(CCCl)CCCl)cc1)C(=O)O (centres unmarked) [Melphalan, melphalan, reference compound]
Growth score [1]: 2+ and 1+ and 3+ and 4+

O=C(CCNc1c2ccccc2nc2ccccc12)OCCN(CCCl)CCCl [β-alanine, N-(acridin-9-yl), 2-[bis(2-chloroethyl)amino]ethyl ester]
Effect on the increase in the number of cultured cells [1]: inhibited the increase in the number of cultured Human Aortic Smooth Muscle Cells in a dose-dependent manner with a relatively broad therapeutic window | Growth score [1]: −/+ and 1+ and +/− and 3+ and 4+ | Effect on the increase in the number of cultured cells (Vero cells): inhibited the increase in the number | Effect on the increase in the number of cultured cells [2]: inhibited the increase in the number
